Data from patent publication US20130096160A1, “ARYLTHIAZOLYL PIPERIDINES AND RELATED COMPOUNDS AS MODULATORS OF SURVIVAL MOTOR NEURON (SMN) PROTEIN PRODUCTION” (Secretary, Department of Health and Human Services, priority 2010, published 2013).

Columns and labels:
[1] = tested on: human SMN protein; experiment: Western blot of SMN protein in SMA patient fibroblasts (3813); format: cell-based; conditions: SMA patient cells (3813), 0.1-10 μM, FIG. 2
Description: Type I spinal muscular atrophy (SMA)-affected human primary fibroblasts (#GM03813) and carrier parents (#GM03814, parent and #GM03815, […]) are obtained live with low passage number from Coriell Cell Repositories. […] For detection of SMN protein in patient fibroblasts, 8,000 cells per cm^2 are plated 24 hours prior to drug addition. Fresh media and compound are added every 24 hours. After 72 hours, cells are harvested, washed with cold PBS, and lysed. Samples are subjected to polyacrylamide gel electrophoresis (PAGE). It is determined that 10 μg total protein per lane is within the linear range for immunoblot detection of SMN and alpha-tubulin. Western blots of the gel are probed for SMN with the 4B7 mouse monoclonal antibody (from the lab of Christian Lorson). A goat anti-mouse antibody (Santa Cruz Biotechnology/#sc-2005) conjugated to horseradish peroxidase (HRP) is used as the secondary antibody. Quantification of protein is performed by detecting chemiluminescence with a Fujifilm LAS-4000 Multifunctional Imaging System. […] We incubated a fibroblast cell line from a type I SMA patient (3813 cell line) with different doses of analogues and assessed the SMN protein level by quantitative western blotting (FIG. 4). We observed that analogue 8 m at concentration of 37 nanomolar increased the SMN protein level by 2-3 fold. […] This could be due with the intrinsic mechanism of action or to other causes, such us concentration dependent compound solubility.

[2] = tested on: SMN2-luciferase reporter; experiment: SMN2-luciferase reporter qHTS assay; format: cell-based, human; conditions: SMN2-luc reporter, FIG. 1
Summary of the method: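 SMN2 exon-7 splicing firefly-luciferase reporter cell line, ~2000 cells/well in phenol-red-free DMEM with 10% serum, allowed to adhere 10–12 h, then exposed to compounds for 2 days at 37 C, 5% CO2. Seven-point five-fold dilution series (e.g. 50 μM to 3.2 nM), OneGlo luminescence read, curves fitted to Hill equation.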

[3] = tested on: SMN1-luciferase reporter; experiment: SMN1-luciferase reporter control cell line; format: cell-based, human; conditions: SMN1-luc reporter, FIG. 1
Description: A cell-based quantitative high throughput screening (qHTS) assay is used to identify compounds able to increase SMN production. The assay uses a SMN2-luciferase reporter to determine if exon 7 of the SMN gene is expressed, which correlates with increased full-length SMN production from the SMN2 gene. As controls, a homologue SMN1-luciferase reporter cell line looks for variations in expression of the SMN1 gene and a cell line with just the luciferase reporter looks at the capacity of the compounds to inhibit luciferase. In addition, increments in SMN production by lead compounds were confirmed by Western-Blot analysis using SMA patient fibroblasts.
The SMN reporters used herein are modified from those previously described (M. L. Zhang, C. L. Lorson, E. J. Androphy and J. Zhou, An in vivo reporter system for measuring increased inclusion of exon 7 in SMN2 mRNA: potential therapy of SMA, Gene Ther 8 (2001), pp. 1532-1538.)
The sequence of the SMN1 reporter vector used herein is given in SEQ ID NO.:1, while that of the SMN2 reporter vector is given in SEQ ID NO.:2. […]

- expression of SMN2 / levels of the full length SMN2 gene (in words) [2]: increases the expression of SMN2
SMILES: COc1nc(-c2ccccc2)nnc1-c1ccccc1 [MLS000763654]
- SMN protein by Western blot (in words) [1]: concentration-dependent increase in SMN protein
- expression of SMN1 (in words) [3]: reduces the expression of SMN1
